Measured values taken from ChEMBL document CHEMBL5370589, “Heterologous Production and Biosynthesis of Threonine-16:0dioic acids with a Hydroxamate Moiety” (J Nat Prod, 2023).
pEC50: −log10 of the molar value. The source made the active and inactive calls. No cut-off for these calls is given here.

Key:
[1] = Metal chelating activity assessed as compound-[…] complex formation by chrome-azurol S assay
[2] = test system: Staphylococcus aureus; assay: Antibiotic activity against Staphylococcus aureus Newman assessed as reduction in bacterial cell growth at 0.03 to 64 microg/ml; format: functional, organism-based; details: dose 0.03-64 µg/ml
[3] = test system: Escherichia coli; assay: Antibiotic activity against wild-type Escherichia coli BW25113 assessed as reduction in bacterial cell growth at 0.03 to 64 microg/ml; format: functional, organism-based; details: dose 0.03-64 µg/ml
[4] = test system: Staphylococcus carnosus; assay: Antibiotic activity against Staphylococcus carnosus DSM-20501 assessed as reduction in bacterial cell growth at 0.03 to 64 microg/ml; format: functional, organism-based; details: dose 0.03-64 µg/ml
[5] = test system: Bacillus subtilis; assay: Antibiotic activity against Bacillus subtilis DSM-10 assessed as reduction in bacterial cell growth at 0.03 to 64 microg/ml; format: functional, organism-based; details: dose 0.03-64 µg/ml
[6] = test system: Kocuria rhizophila; assay: Antibiotic activity against Kocuria rhizophila DSM-348 assessed as reduction in bacterial cell growth at 0.03 to 64 microg/ml; format: functional, organism-based; details: dose 0.03-64 µg/ml
[7] = test system: Enterococcus mundtii; assay: Antibiotic activity against Enterococcus mundtii DSM-4840 assessed as reduction in bacterial cell growth at 0.03 to 64 microg/ml; format: functional, organism-based; details: dose 0.03-64 µg/ml
[8] = test system: Pseudomonas putida; assay: Antibiotic activity against Pseudomonas putida assessed as reduction in bacterial cell growth at 0.03 to 64 microg/ml; format: functional, organism-based; details: dose 0.03-64 µg/ml
[9] = test system: Micrococcus luteus; assay: Antibiotic activity against Micrococcus luteus DSM-20030 assessed as reduction in bacterial cell growth at 0.03 to 64 microg/ml; format: functional, organism-based; details: dose 0.03-64 µg/ml
[10] = test system: Erwinia persicina; assay: Antibiotic activity against Erwinia persicina DSM-19328 assessed as reduction in bacterial cell growth at 0.03 to 64 microg/ml; format: functional, organism-based; details: dose 0.03-64 µg/ml
[11] = test system: HepG2; assay: Cytotoxicity against human HepG2 cells assessed as reduction in cell viability; format: toxicity, cell-based
[12] = Potency index, ratio of deferoxamine EC50 to compound EC50 for metal chelating activity assessed as compound-[…] complex formation by chrome-azurol S assay
[13] = Metal chelating activity assessed as compound-[…] complex formation at 10 to 100 uM by chrome-azurol S assay; details: dose 10-100 µM

pEC50 [1]	Ratio EC50 [12]	Activity [13]	Structure (SMILES)	Activity [2]	Activity [3]	Activity [4]	Activity [5]	Activity [6]	Activity [7]	Activity [8]	Activity [9]	Activity [10]	Activity [11]
4.74			O=C(O)CN(CCN(CC(=O)O)CC(=O)O)CC(=O)O [EDETIC ACID]										
4.12			CC(CCCCCCCCCCCCC(=O)N(O)[C@@H](C(=O)O)[C@@H](C)O)C(=O)O (stereo partly specified)										
4.24	5		C[C@@H](O)[C@H](C(=O)O)N(O)C(=O)CCCCCCCCCCCCCCC(=O)O	inactive	inactive	inactive	inactive	inactive	inactive	inactive	inactive	inactive	Non-Toxic
		inactive	CC(=O)N[C@@H](CSC(CCCCCCCCCCCCCC(=O)O)C(=O)N[C@@H](C(=O)O)[C@@H](C)O)C(=O)O (stereo partly specified)	inactive	inactive	inactive	inactive	inactive	inactive	inactive	inactive	inactive	Non-Toxic
4.96			CC(=O)N(O)CCCCCNC(=O)CCC(=O)N(O)CCCCCNC(=O)CCC(=O)N(O)CCCCCN [DEFEROXAMINE]										
